Assay results as given in US10294230B2, “3,3-difluoropiperidine carbamate heterocyclic compounds as NR2B NMDA receptor antagonists” (Rugen Holdings (Cayman) Limited, priority 2015, dated 2019).

How the values were obtained:
CYP2D6 = CYP2D6 (Homo sapiens (Human), UniProt P10635); test: CYP P450 enzyme inhibition, pooled human liver microsome; format: in vitro ADME; details: 10 μM, pooled HLM, dextromethorphan 5 μM
Procedure: Those CYP isoforms and their corresponding probe substrates are as follows: CYP1A2 (phenacetin, 30 μM), CYP2C9 (tolutamide, 100 μM), CYP2C19 (S-mephenytoin, 40 μM), CYP2D6 (dextromethorphan, 5 μM) and CYP3A4 (midazolam, 1 μM). All probe substrates were used at concentrations near or below their Kms. For experiment, a reaction mixture of test compound at 10 μM or in serial dilution, CYP probe substrate described above and 0.2 mg/mL pooled HLM in phosphate buffer, pH 7.4 in a final volume of 200 μL was pre-incubated at 37° C. for 10 minutes in triplicate. The reaction was initiated by addition of NADPH at final concentration of 1 mM. The reaction was terminated after 10 minutes (CYP1A2, CYP2D6 and CYP3A4) or 30 minutes (CYP2C9 and CYP2C19) by addition of 100 μL ice-cold acetonitrile with internal standard (IS). The samples were then centrifuged at 13,000 rpm and the supernatants were injected to LC-MS/MS (Agilent Technologies) to quantify the concentration of the specific metabolites of the probe substrates formed by individual CYP450 isoforms. The inhibition ratio is calculated as: (Mt−M0)/Mwater×100% in which Mt and M0 represent the concentrations of the specific probe substrate metabolite, which was formed by individual CYP450 isoform, at the beginning and end of the reaction in the presence of test compound; while Mwater represents the concentration of the specific metabolite at the end of the reaction in the absence of test compound. Test compound concentration-dependent response data experiments performed in triplicate.

[1] = tested on: 6 Hz electrically induced seizures; test: 6 Hz Seizure Test; format: in vivo; details: for forelimb seizure score, change vs vehicle control: mice
Procedure: Mice were administered a rectangular current (44 mA, rectangular pulse: 0.2 ms pulse width, 3 s duration, 6 Hz) via corneal electrodes connected to a constant current shock generator (Ugo Basile: type 7801). The results for the number of seizures as reflected by forelimb clonus were recorded during the first minute following current administration. Forelimb clonus was scored as absent (0), mild (1) and strong (2). 15 mice were studied per group. The test was performed partially blind (test substance vs vehicle). […] Quantitative data (scores) with the test substance was analyzed by comparing treated groups with vehicle control using Kruskall-Wallis test followed by Mann-Whitney U tests.

[2] = tested on: formalin-induced nociceptive behavior; test: Rat Formalin Model; format: in vivo; details: rats, 10, 30 and 60 mpk i.p., mesylate salt
Procedure: The rat formalin model is a tonic model of continuous pain resulting from formalin-induced spontaneous nociceptive behaviors. Intra-paw injection of formalin is a commonly used model to measure spontaneous nociceptive behaviors in rodents (Dubuisson, D. and Dennis, S. G. Pain 4:161, 1977). Subcutaneous plantar injection of formalin causes a bi-phasic nocifensive behavioral response in rodents. The early phase (phase-1) lasts for about 5-10 min following which an interphase occurs without any discernible nociceptive reactions after which the late phase (phase-II) nociceptive reaction ensues continuing from about 20-60 min following formalin injection. Formalin model is a model of tonic, persistent pain, and is widely used for rapid screening of novel analgesic compounds. […] In the present example, effects of test item were assessed in 0-5 minutes from the early phase (phase-I) and 20-35 minutes from the late phase (phase-II) of formalin-induced nociceptive behavior. […]
For all groups, animals were acclimated to the observation chamber for 15 minutes immediately prior to formalin injection. All animals received an intraplantar subcutaneous injection of 50 μL of 5% formalin into the left hind paw and then placed immediately into an observation chamber and formalin-evoked spontaneous nociceptive behaviors in the rats were continuously recorded for 0-60 min using a commercial camcorder. […]

[3] = tested on: KCl-induced cortical spreading depression; test: Cortical Spreading Depression (CSD), aura phase of migraine model; format: in vivo; details: rats
Procedure: The cortical spreading depression model is utilized to investigate whether treatment with compounds of the present invention affect electrophysiological and hemodynamic events in a rat model of migraine.
Rats were anesthetized with 5% isoflurane (in 70% N2O and 30% O2; flow 300 ml/min) and placed in a stereotactic frame. […] The rectal temperature was maintained at 37.0±1.0° C. with a homeothermic blanket system. The skin was opened by a medial incision and retracted laterally. Three burr holes were drilled under saline cooling over the right hemisphere at the following coordinates (mm from bregma): (1) posterior 4.5, lateral, 2.0 (occipital cortex): KCl application site; (2) posterior 0.5, lateral 2.0 (parietal cortex): LDF recording site; (3) anterior 2, lateral 2 (frontal cortex): DC potential recording site. A laser-Doppler flow probe (Oxyflow, Oxford Optronics, UK) to monitor CBF and an invasive Ag/AgCl electrode for measuring direct current (DC) potential shifts were placed in the parietal and frontal cortex burr holes on the intact dura and in the cortex, respectively. The laser-Doppler flow probe was positioned in an area free of large pial and dural vessels to minimize a large-vessel contribution to the signal. For the DC-potential measurement, a reference electrode was fixed in the neck. Dura overlying the occipital cortex was gently removed and care was taken to avoid bleeding. After surgical preparation, the cortex was allowed to recover for 15 minutes under saline irrigation. A cotton ball (2 mm diameter) soaked with 1M KCl was placed on the pial surface and kept moist by placing 5 μl of KCl solution every 15 minutes. Test compound or vehicle was administered ten (10) minutes prior to CSD initiation. […] The number of KCl-induced CSDs was counted for 2 hours. The CBF and DC-potentials were monitored continuously starting from 5 minutes before KCl exposure.
Test compound E1-1.2 was administered as a mesylate salt (mpk based on molecular weight of the mesylate salt).
The data was collected in Windaq acquisition software (Dataq Instruments, USA) at 20 kHz. The raw data was analyzed in Clampfit program (Axon Instruments, USA). The signals were low pass filtered (cut off range 5-10000 Hz) that CSD episodes in DC and CBF could be confirmed. The following parameters were analyzed: i) the number, duration and amplitude of DC-potentials, and ii) the number and amplitude of CBF events.
Doses were given as milligram per kilogram (mpk). […] Bars represent mean±Standard Error of Mean (SEM), and differences were considered to be statistically significant at the P<0.05 level (n=8, * different from vehicle group). Statistical analysis was performed using StatsDirect statistical software. Differences between groups were analyzed by using 1-way ANOVA and Dunnett's post hoc test.

[4] = E1-1.2 at various doses, MK-801 1.25 mg/kg

CYP2D6, sequence (P10635 whole entry): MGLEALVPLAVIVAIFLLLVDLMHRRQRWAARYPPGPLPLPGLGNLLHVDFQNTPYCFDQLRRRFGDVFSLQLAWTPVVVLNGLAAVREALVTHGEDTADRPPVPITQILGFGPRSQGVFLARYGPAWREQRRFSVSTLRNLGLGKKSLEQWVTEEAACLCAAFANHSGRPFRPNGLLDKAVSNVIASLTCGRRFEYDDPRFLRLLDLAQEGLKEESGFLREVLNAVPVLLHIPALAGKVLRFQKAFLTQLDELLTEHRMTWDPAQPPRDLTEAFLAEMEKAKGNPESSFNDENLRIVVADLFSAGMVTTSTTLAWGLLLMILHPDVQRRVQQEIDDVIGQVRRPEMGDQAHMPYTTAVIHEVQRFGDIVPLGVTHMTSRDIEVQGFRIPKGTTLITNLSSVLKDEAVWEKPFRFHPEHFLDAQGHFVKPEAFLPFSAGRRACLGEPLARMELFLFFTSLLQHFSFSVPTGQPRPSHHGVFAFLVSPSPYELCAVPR

Cc1ccc(COC(=O)N2CC[C@H](CNc3nccn4cnnc34)C(F)(F)C2)cc1 [Compound E1-1.2, (+)-R-4-methylbenzyl 4-(([1,2,4]triazolo[4,3-a]pyrazin-8-ylamino)methyl)-3,3-difluoropiperidine-1-carboxylate]
CYP2D6 @ 10 μM (%) (CYP2D6): 14%
number of mice with Straub tail, change vs vehicle control ([1]; 10 mg/kg p.o., NS): −13%
number of mice with Straub tail, change vs vehicle control ([1]; 30 mg/kg p.o.): −40%
forelimb seizure score, change vs vehicle control ([1]; 10 mg/kg p.o. 30 minutes before the test): −50%
forelimb seizure score, change vs vehicle control ([1]; 30 mg/kg p.o. 30 minutes before the test): −70%
cumulative time spent on nociceptive behavior in phase I (0-5 mins) [2]: decreased
cumulative time spent on nociceptive behavior in phase II (20-35 mins) [2]: decreased
magnitude of CBF vs vehicle [3]: unchanged
number of DC potentials vs vehicle ([3]; 3 mpk, 10 mpk and 30 mpk, mesylate salt): significantly decreased
number of CBF events vs vehicle ([3]; E1-1.2 at 10 mg/kg, MK-801 at 1.25 mg/kg): decreased
amplitude of DC potentials vs vehicle [3, 4]: not statistically different
duration of DC potentials vs vehicle [3, 4]: not statistically different
